Measured values reported in ChEMBL document CHEMBL3877294, “Discovery of Ruzasvir (MK-8408): A Potent, Pan-Genotype HCV NS5A Inhibitor with Optimized Activity against Common Resistance-Associated Polymorphisms” (J Med Chem, 2017).

How the values were obtained:
[1] = AUC (0 to t) in rhesus monkey at 5 mg/kg, po measured after 48 hrs by LC/MS/MS method; type: ADME, organism-based, Macaca mulatta; set-up: dose 5 mg/kg, time < 48 hr, route oral; settings: in vivo
[2] = system: Huh-7; experiment: Inhibition of HCV genotype-3a NS5A infected in human HuH7 cells by luciferase reporter gene assay; type: cell-based; settings: Hepatitis C virus subtype 3a
[3] = system: T1, Nonstructural protein 5A (Hepatitis C virus), Q5L478 [Y93H]; experiment: Inhibition of HCV genotype-1a NS5A Y93H mutant infected in human HuH7 cells by luciferase reporter gene assay; type: cell-based; settings: Hepatitis C virus subtype 1a; Huh-7
T1 sequence (whole entry): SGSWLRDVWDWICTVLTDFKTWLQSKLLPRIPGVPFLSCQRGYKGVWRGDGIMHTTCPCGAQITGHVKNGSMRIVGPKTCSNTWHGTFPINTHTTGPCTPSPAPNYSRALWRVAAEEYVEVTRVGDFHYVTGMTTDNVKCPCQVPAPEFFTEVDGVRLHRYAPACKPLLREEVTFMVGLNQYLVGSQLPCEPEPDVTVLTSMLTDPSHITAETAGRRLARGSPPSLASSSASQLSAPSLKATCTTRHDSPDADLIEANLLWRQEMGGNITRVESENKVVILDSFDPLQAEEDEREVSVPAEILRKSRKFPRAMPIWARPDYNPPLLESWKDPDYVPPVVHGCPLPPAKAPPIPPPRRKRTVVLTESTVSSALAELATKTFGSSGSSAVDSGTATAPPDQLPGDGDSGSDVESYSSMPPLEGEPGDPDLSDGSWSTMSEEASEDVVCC

[4] = system: Nonstructural protein 5A (Hepatitis C virus), Q5L478 [UNDEFINED MUTATION]; experiment: Inhibition of HCV genotype-1a NS5A L31V mutant infected in human HuH7 cells by luciferase reporter gene assay; type: cell-based; settings: Hepatitis C virus subtype 1a; Huh-7
[5] = Plasma clearance in rhesus monkey at 1 mg/kg, iv measured after 48 hrs by LC/MS/MS method; type: ADME, organism-based, Macaca mulatta
[6] = system: Huh-7; experiment: Inhibition of HCV genotype-2b NS5A harboring methionine at position 31 infected in human HuH7 cells by luciferase reporter gene assay; type: cell-based; settings: Hepatitis C virus subtype 2b
[7] = Oral bioavailability in rhesus monkey at 5 mg/kg measured at 48 hrs post dose by LC/MS/MS method; type: ADME, organism-based, Macaca mulatta; settings: in vivo
[8] = Half life in rhesus monkey at 1 mg/kg, iv by LC/MS/MS method; type: ADME, organism-based, Macaca mulatta; settings: in vivo
[9] = system: Huh-7; experiment: Inhibition of HCV genotype-1a NS5A infected in human HuH7 cells by luciferase reporter gene assay; type: cell-based; settings: Hepatitis C virus subtype 1a
[10] = AUC (0 to t) in rat at 10 mg/kg, po measured after 24 hrs by LC/MS method; type: ADME, organism-based; set-up: dose 10 mg/kg, time < 24 hr, route oral; settings: in vivo
[11] = Plasma clearance in rat at 2 mg/kg, iv measured after 24 hrs by LC/MS method; type: ADME, organism-based
[12] = Drug uptake in rat at 10 mg/kg, po measured at 24 hrs post dose by LC/MS method; type: ADME, organism-based; settings: in vivo, read-out: Drug uptake
[13] = Half life in rat at 2 mg/kg, iv by LC/MS method; type: ADME, organism-based; settings: in vivo
[14] = Oral bioavailability in rat at 10 mg/kg measured after 24 hrs by LC/MS method; type: ADME, organism-based; settings: in vivo
[15] = system: Huh-7; experiment: Inhibition of HCV genotype-4a NS5A infected in human HuH7 cells by luciferase reporter gene assay; type: cell-based; settings: Hepatitis C virus subtype 4a

Compound | AUC(0-t) at 48 h [1] | EC90 [2] | EC90 [3] | EC90 [4] | clearance [5] | EC90 [6] | bioavailability [7] | half-life [8] | EC90 [9] | AUC(0-t) at 24 h [10] | clearance [11] | concentration at 24 h [12] | half-life [13] | bioavailability [14] | EC90 [15]
COC(=O)N[C@H](C(=O)N1CCC[C@H]1c1ncc(-c2cc(F)c3c(c2)OC(c2cc(C(C)C)no2)n2c-3cc3cc(-c4cnc([C@@H]5CCCN5C(=O)[C@@H](NC(=O)OC)C(C)C)[nH]4)ccc32)[nH]1)C(C)C (stereo not given in full) | 3.9 µM·h | 0.019 nM | 0.42 nM | 0.056 nM | 2.2 mL/min/kg | 0.92 nM | 10% | 10.2 h | 0.002 nM |  |  |  |  |  | 
COC(=O)N[C@H](C(=O)N1CCC[C@H]1c1ncc(-c2cc(F)c3c(c2)OC(c2cnc(C4CC4)s2)n2c-3cc3cc(-c4cnc([C@@H]5C[C@H]6C[C@H]6N5C(=O)[C@@H](NC(=O)OC)C(C)C)[nH]4)ccc32)[nH]1)C(C)C (stereo not given in full) |  | 0.011 nM | 0.021 nM | 0.007 nM |  | 0.076 nM |  |  | 0.006 nM | 0.52 µM·h | 12 mL/min/kg | 1.9 nM | 3.9 h | 4% | 0.006 nM
